Assay results published in patent publication US20230093099A1, “COMPOUNDS AND METHODS OF TREATING CANCERS” (CULLGEN (SHANGHAI), INC., priority 2019, published 2023).
Read-outs that look alike come from different tables or passages of the source.

Key:
Assay type in all cases: cell-based
RS4;11 cells = test: Cell viability assay (CellTiter-Glo) in RS4;11 cells; details: for IC50: Homo sapiens, 72 h; for cell viability inhibition in combination with pomalidomide: RS4;11, 3 days, pomalidomide at 10 μM (FIG. 4)
Outline: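 Three-day compound treatment of RS4;11 ALL cells (5000/well, 3-fold dilution series of 8 or 12 points), with IC50 from a nonlinear least-squares fit to CellTiter-Glo viability data.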

HEL cells = test: Cell viability assay (CellTiter-Glo) in HEL cells; details: 3 days; for cell viability inhibition in combination with pomalidomide: pomalidomide at 10 μM (FIG. 4); for IC50: Homo sapiens, 72 h, erythroleukemia, cell viability
Experimental: (§1) MV4;11, RS4;11, Kasumi-1, HEL and other cells were treated with NVP-BSK805, TG101209 or selected degraders for 3 days at indicated concentrations following a 3-fold serial dilution.
(§2) HEL, RS4;11, MV4;11, Kasumi-1 and other cells were cultured at 37° C. with 5% CO2 in RPMI 1640 or DMEM Medium supplemented with 10% fetal bovine serum. Cells were authenticated using the short tandem repeat (STR) assays. Mycoplasma test results were negative.
(§3) Cells were seeded at a density of 5000 cells per well in 96-well assay plates and treated with test compounds following a 8-point or 12-point 3-fold serial dilution. Three days later, cell viability was determined using the CellTiter-Glo assay kit according to the manufacturer's instructions. The dose-response curves were determined and IC50 values were calculated using the GraphPad Prism software following a nonlinear regression (least squares fit) method.

Jurkat cells = test: Cell viability assay (CellTiter-Glo) in Jurkat cells; details: Homo sapiens, 72 h, T-ALL, 3 days
Experimental: as §1, §2, §3

MV4;11 cells = test: Cell viability assay (CellTiter-Glo) in MV4;11 cells; details: for IC50: Homo sapiens, 72 h, MV4;11, AML, cell viability, 3 days; for cell viability inhibition in combination with pomalidomide: MV4;11, 3 days, pomalidomide at 10 μM (FIG. 4)
Experimental: as §1, §2, §3

KM12 cells = test: Cell viability assay (CellTiter-Glo) in KM12 cells; details: Homo sapiens, 72 h, KM12, colorectal carcinoma, 3 days
Experimental: as §1, §2, §3

JAK2-V617F = target: T1, JAK2-V617F (Homo sapiens, UniProt O60674, V617F); test: Immunoblot of JAK2 protein level in HEL cells; details: 24 hours; for JAK2 protein level: HEL cells, immunoblot (FIG. 1)
T1 construct: immunoblot of JAK1/2/3 proteins expressed in HEL cells; endogenous in cells; host or cells: HEL cells
Experimental: (§4) HEL cells harboring JAK2-V617F mutation were treated with compounds at indicated concentrations for 24 hours. […] The concentrations required to reduce JAK2-V617 by 50% (DC50) were below 60 nM for compound JA-213.
as §2
(§5) Rabbit anti-JAK1 antibody (3344S), anti-JAK2 antibody (3230S), anti-JAK3 antibody (8827S), anti-TYK2 antibody (14193S), anti-FLT3 antibody (3462S), anti-RET antibody (14556S), anti-phospho-STAT3 (Tyr705) antibody (9145S) and anti-phospho-STAT5 (Tyr694) antibody (4322S) were purchased from Cell Signaling Technology. Rabbit anti-GSPT1 antibody (ab126090) was purchased from Abcam. HRP-conjugated anti-α-tubulin antibody was produced in house. Media and other cell culture reagents were purchased from Thermo Fisher. The CellTiter-Glo Luminescent Assay kit was purchased from Promega.
Cultured cells were washed with cold PBS once and lysed in cold RIPA buffer supplemented with protease inhibitors and phosphatase inhibitors (Beyotime Biotechnology). The solutions were then incubated at 4° C. for 30 minutes with gentle agitation to fully lyse cells. Cell lysates were centrifuged at 13,000 rpm for 10 minutes at 4° C. and pellets were discarded. Total protein concentrations in the lysates were determined by BCA assays (Beyotime Biotechnology). Cell lysates were mixed with Laemmli loading buffer to 1× and heated at 99° C. for 5 min. Proteins were resolved on SDS-PAGE and visualized by chemiluminescence. Images were taken by a ChemiDoc MP Imaging system (Bio-Rad). Protein bands were quantitated using the accompanied software provided by Bio-Rad.

JAK1 = target: T2, JAK1 (Homo sapiens, UniProt P23458); test: Immunoblot of JAK1 protein level in HEL cells; details: 24 hours, immunoblot (FIG. 1)
T2 construct: immunoblot of JAK1/3 proteins expressed in RS4;11 cells; endogenous in cells; host or cells: RS4;11 cells
Experimental: as §4, §2, §5
(§6) Cultured cells were washed with cold PBS once and lysed in cold RIPA buffer supplemented with protease inhibitors and phosphatase inhibitors (Beyotime Biotechnology). […] Total protein concentrations in the lysates were determined by BCA assays (Beyotime Biotechnology). […] Protein bands were quantitated using the accompanied software provided by Bio-Rad.

JAK3 = target: T3, JAK3 (Homo sapiens, UniProt P52333); test: Immunoblot of JAK3 protein level in RS4;11 cells; details: immunoblot (FIG. 2)
T3 construct: immunoblot of JAK1/2/3 proteins expressed in HEL cells; endogenous in cells; host or cells: HEL cells
T3 sequence (P52333 1-1124): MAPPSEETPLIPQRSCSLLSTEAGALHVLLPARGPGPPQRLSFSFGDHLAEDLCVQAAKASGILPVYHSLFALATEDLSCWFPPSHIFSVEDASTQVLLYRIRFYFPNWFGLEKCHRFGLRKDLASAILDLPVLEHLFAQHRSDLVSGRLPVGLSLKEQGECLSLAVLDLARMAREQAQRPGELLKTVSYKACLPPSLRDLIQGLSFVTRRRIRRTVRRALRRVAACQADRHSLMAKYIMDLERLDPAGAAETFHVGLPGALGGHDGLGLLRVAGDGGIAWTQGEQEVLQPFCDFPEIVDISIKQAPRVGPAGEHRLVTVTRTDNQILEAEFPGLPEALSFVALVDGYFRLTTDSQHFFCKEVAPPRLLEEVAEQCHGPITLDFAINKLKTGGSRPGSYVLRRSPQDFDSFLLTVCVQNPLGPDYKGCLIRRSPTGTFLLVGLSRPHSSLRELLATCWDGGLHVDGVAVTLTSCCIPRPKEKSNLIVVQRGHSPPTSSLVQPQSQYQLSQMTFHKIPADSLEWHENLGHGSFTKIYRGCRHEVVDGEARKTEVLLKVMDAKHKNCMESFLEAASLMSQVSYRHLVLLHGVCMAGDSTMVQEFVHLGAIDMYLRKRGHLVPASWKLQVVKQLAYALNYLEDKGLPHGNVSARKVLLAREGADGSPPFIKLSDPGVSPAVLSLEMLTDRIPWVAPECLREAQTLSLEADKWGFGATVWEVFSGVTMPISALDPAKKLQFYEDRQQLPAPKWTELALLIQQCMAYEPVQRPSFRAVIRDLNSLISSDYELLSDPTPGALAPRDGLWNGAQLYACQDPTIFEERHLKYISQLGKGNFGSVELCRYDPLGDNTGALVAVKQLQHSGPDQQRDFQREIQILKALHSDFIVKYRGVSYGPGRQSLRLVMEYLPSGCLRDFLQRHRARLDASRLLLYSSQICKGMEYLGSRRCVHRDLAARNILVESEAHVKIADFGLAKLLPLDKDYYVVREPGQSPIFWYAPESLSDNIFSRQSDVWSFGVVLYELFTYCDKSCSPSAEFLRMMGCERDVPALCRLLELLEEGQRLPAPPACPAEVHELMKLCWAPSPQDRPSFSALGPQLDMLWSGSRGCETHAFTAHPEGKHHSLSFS
Experimental: To confirm JA-189 and JA-213 are true JAK degraders, HEL cell were treated with these two compounds at various compounds concentrations.
as §2, §5, §6

[1] = RS4;11 ALL cells treated for three days, read-out: cell viability inhibition IC50
[2] = RS4;11 cells, cell viability, 3 days, CellTiter-Glo, read-out: IC50

T1 sequence (O60674 whole entry V617F): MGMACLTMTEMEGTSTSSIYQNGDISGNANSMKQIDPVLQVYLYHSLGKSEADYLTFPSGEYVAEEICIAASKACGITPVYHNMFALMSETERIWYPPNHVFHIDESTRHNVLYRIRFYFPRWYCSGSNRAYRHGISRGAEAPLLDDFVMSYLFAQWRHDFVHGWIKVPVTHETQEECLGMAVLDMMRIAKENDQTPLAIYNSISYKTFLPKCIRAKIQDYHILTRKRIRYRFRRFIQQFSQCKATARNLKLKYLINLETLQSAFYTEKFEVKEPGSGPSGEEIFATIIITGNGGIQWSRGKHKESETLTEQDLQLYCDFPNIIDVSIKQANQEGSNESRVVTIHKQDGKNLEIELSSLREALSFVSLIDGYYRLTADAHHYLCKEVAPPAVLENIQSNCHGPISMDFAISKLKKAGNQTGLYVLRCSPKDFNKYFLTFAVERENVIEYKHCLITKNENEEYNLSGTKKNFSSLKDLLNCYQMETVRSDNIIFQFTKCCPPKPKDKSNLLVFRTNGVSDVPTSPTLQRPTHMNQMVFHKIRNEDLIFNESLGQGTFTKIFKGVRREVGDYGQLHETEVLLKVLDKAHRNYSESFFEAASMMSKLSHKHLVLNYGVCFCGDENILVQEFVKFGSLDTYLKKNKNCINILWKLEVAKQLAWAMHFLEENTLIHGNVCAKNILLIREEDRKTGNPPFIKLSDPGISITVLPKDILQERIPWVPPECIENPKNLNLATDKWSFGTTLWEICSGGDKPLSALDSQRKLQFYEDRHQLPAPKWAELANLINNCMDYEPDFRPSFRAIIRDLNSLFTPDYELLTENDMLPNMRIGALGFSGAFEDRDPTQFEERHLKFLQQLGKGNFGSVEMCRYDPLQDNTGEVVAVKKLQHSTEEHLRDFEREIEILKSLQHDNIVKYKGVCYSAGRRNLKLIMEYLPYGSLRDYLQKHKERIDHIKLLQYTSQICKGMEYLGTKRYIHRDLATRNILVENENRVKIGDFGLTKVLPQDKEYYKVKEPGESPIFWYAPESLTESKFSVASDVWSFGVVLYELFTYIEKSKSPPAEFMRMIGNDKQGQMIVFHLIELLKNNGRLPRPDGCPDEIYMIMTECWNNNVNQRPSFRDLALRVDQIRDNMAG
T2 sequence (P23458 whole entry): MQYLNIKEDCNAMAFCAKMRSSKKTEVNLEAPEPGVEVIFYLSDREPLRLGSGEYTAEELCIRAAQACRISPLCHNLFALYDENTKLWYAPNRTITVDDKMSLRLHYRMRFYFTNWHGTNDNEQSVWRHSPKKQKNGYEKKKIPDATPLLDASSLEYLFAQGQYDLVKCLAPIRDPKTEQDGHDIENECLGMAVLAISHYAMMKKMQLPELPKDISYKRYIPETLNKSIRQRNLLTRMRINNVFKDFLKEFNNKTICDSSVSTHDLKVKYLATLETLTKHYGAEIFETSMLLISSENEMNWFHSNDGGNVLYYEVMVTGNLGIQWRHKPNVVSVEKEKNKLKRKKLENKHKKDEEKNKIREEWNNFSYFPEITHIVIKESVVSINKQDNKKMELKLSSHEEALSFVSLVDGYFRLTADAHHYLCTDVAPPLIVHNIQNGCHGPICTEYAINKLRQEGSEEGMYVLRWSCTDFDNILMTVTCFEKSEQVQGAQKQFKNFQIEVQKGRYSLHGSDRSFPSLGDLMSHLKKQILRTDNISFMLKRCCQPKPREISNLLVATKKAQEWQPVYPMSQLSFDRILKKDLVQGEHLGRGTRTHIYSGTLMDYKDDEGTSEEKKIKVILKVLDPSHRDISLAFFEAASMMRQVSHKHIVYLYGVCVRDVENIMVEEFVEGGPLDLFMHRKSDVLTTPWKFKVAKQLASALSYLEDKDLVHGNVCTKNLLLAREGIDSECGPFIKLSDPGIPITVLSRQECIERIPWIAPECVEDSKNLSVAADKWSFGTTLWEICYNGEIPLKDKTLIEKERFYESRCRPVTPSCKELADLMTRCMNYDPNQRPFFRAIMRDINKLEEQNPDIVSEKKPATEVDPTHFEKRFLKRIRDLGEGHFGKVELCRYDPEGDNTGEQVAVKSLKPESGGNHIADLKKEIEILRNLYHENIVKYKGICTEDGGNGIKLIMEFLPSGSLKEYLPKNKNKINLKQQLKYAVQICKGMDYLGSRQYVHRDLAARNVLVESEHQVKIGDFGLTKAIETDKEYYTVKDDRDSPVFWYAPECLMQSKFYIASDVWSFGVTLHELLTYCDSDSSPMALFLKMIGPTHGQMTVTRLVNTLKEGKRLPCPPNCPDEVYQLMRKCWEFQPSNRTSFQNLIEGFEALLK

SMILES | IC50 (RS4;11 cells; [1]) [nM] | IC50 (RS4;11 cells; [2]) [nM] | cell viability inhibition in combination with pomalidomide (RS4;11 cells) | cell viability inhibition in combination with pomalidomide (HEL cells) | IC50 (HEL cells) [nM] | IC50 (Jurkat cells) [nM] | IC50 (MV4;11 cells) [nM] | cell viability inhibition in combination with pomalidomide (MV4;11 cells) | IC50 (KM12 cells) [nM] | JAK2 protein level (JAK2-V617F) | JAK1 protein level (JAK1) | JAK3 protein level (JAK3) | DC50 (JAK2-V617F; HEL cells harboring JAK2-V617F, immunoblot, read-out: concentration required to reduce JAK2-V617 by 50% (DC50)) [nM]
O=C1CCC(N2C(=O)c3ccc(NCCCCCC(=O)N4CCC(n5cc(-c6cnc7cccc(-c8cc(F)c(CN9CCOCC9)c(F)c8)c7n6)cn5)CC4)cc3C2=O)C(=O)N1 (stereo not shown) [JA-189, 5-((6-(4-(4-(8-(3,5-difluoro-4-(morpholinomethyl)phenyl)quinoxalin-2-yl)-1H-pyrazol-1-yl)piperidin-1-yl)-6-oxohexyl)amino)-2-(2,6-dioxopiperidin-3-yl)isoindoline-1,3-dione] | < 100 | 2.03 | greatly reduce the potencies of the degraders | greatly reduce the potencies of the degraders | 177 | 34.2 | 7.93 | greatly reduce the potencies of the degraders | 2370 | able to reduce JAK1, JAK2 and JAK3 protein levels | able to reduce JAK1, JAK2 and JAK3 protein levels | even better activity in reducing the JAK1 and JAK3 protein levels | –
CS(=O)(=O)c1ccc(-c2cccc3nc(Nc4ccc(N5CCN(CC(=O)NCCCCCCCCNc6ccc7c(c6)C(=O)N(C6CCC(=O)NC6=O)C7=O)CC5)cc4)nn23)cc1 (stereo not shown) [JA-213] | < 100 | 8.45 | greatly reduce the potencies of the degraders | greatly reduce the potencies of the degraders | 82.1 | 62.7 | 19.6 | greatly reduce the potencies of the degraders | 679 | able to reduce JAK1, JAK2 and JAK3 protein levels | able to reduce JAK1, JAK2 and JAK3 protein levels | even better activity in reducing the JAK1 and JAK3 protein levels | < 60
